For 14 compounds, inhibition in vivo and Activity results are on record in ChEMBL document CHEMBL3272154, “Synthesis of 1- and 2-substituted indazoles as anthelmintic agents” (1976).

Activity calls are given as the source filed them. The rule behind the calls is not given here.

In general, inhibition in vivo refers to the relative decrease from the control value, in per cent.

Experiment [1] relates to Trichinella spiralis. Put plainly: Anthelmintic activity against Trichinella spiralis infected in mouse assessed as reduction in nematode level at 25 mg/kg, po and 25 mg/kg, sc administered 8 hrs post infection. In kind it is functional.
Experiment [2] relates to Trichinella spiralis. The experiment in a line: Anthelmintic activity against Trichinella spiralis infected in sheep assessed as reduction in intestinal nematode burden at 25 mg/kg, po after 7 days post dose. The experiment is classed as functional. As to conditions: 168 h.
The test system of experiment [3] is Trichinella spiralis. The experiment in a line: Anthelmintic activity against Trichinella spiralis infected in sheep assessed as reduction in intestinal nematode burden at 15 mg/kg, po after 7 days post dose. In kind it is functional. Particulars: 168 h.
Experiment [4] deals with Trichinella spiralis. Put plainly: Anthelmintic activity against Trichinella spiralis infected in po dosed sheep assessed as reduction in intestinal nematode burden. In kind it is functional, organism-based.

As to `CCCCc1ccc2[nH]c(NC(=O)OC)nc2c1` [PARBENDAZOLE], the inhibition in vivo at 25 mg/kg in the experiment on Trichinella spiralis [1] and in the experiment with Trichinella spiralis [2] was 99% throughout.

As for `CCCCCCCN(C)C(=O)n1cc2ccccc2n1`, in the experiment on Trichinella spiralis [1], the inhibition in vivo at 25 mg/kg turned out to be 45%. The inhibition in vivo at 15 mg/kg in the experiment on Trichinella spiralis [3] was 0%.

Regarding `O=C(c1ccco1)n1cc2ccccc2n1`, the inhibition in vivo at 25 mg/kg in the experiment on Trichinella spiralis [1] was determined as 58%. Also, in the experiment with Trichinella spiralis [3], the inhibition in vivo at 15 mg/kg turned out to be 0%.

As for `COC(=O)n1cc2ccccc2n1`, the inhibition in vivo at 25 mg/kg with Trichinella spiralis [1] was 26%.

`O=C(Nc1nc2ccccc2[nH]1)c1ccco1`: in the experiment with Trichinella spiralis [2], the inhibition in vivo at 25 mg/kg was found to be 99%.

Turning to `O=C(c1ccco1)n1ncc2ccccc21`, the inhibition in vivo at 25 mg/kg with Trichinella spiralis [1] was 16%. In the experiment with Trichinella spiralis [3], the inhibition in vivo at 15 mg/kg is 0%.

As to `O=C(c1cnc2ccccc2n1)n1cc2ccccc2n1`, the inhibition in vivo at 25 mg/kg with Trichinella spiralis [1] was 36%.

As to `COC(=O)Nc1nc2ccccc2[nH]1` [CARBENDAZIM], the inhibition in vivo at 25 mg/kg in the experiment with Trichinella spiralis [1] is 0%; in the experiment with Trichinella spiralis [2], 98%.

Consider `O=C(OCc1ccccc1)n1cc2ccccc2n1`, for which the inhibition in vivo at 25 mg/kg with Trichinella spiralis [1] came to 74%. Moreover, in the experiment on Trichinella spiralis [3], the inhibition in vivo at 15 mg/kg was found to be 0%.

Consider `CCCCCCN(C)C(=O)n1ncc2ccc([N+](=O)[O-])cc21`, for which the inhibition in vivo at 25 mg/kg in the experiment on Trichinella spiralis [1] is 41%.

In the case of `CCCCCCCN(C)C(=O)Nc1nc2ccccc2[nH]1`, in the experiment on Trichinella spiralis [1], the inhibition in vivo at 25 mg/kg worked out at 14%. In the experiment on Trichinella spiralis [3], the inhibition in vivo at 15 mg/kg is 0%.

As for `CCCCCCCN(C)C(=O)n1nc2ccccc2n1`, the result in the experiment with Trichinella spiralis [4] was Active.

Consider `CCCCCCN(C)C(=O)n1cc2cc(Cl)ccc2n1`, for which the inhibition in vivo at 25 mg/kg with Trichinella spiralis [1] was 40%.

As for `COC(=O)n1ncc2ccccc21`, the inhibition in vivo at 25 mg/kg in the experiment with Trichinella spiralis [1] is 23%.
